According to US8097709B2, “Macrolactam compounds” (Novobiotic Pharmaceuticals, Inc., priority 2007, dated 2012):
Values after ≈ are worked out from the molar mass of the structure shown.

Tests used:
B. anthracis Sterne = type: cell-based; details: minimal concentration giving observable zone of no growth, MHB agar
MSSA 33591 = assay: Minimal Inhibitory Concentration in broth; type: cell-based; details: Staphylococcus aureus
C. difficile 196 = assay: Minimal Inhibitory Concentration in broth; type: cell-based; details: Clostridioides difficile, MHB + 0.05% BSA
MSSA 29213 = assay: Minimal Inhibitory Concentration in broth; type: cell-based; details: Staphylococcus aureus
human red blood cells = type: cell-based
Method: The effect of NOVO3 on the hemolysis of human red blood cells was also tested. A total of 10 ml of expired packed red blood cells from the blood bank was gently added to 80 ml of PBS (Phosphate buffered saline), and pelleted at 1000 g for 5 minutes at 4° C. The upper phase and buffy layer (white blood cells) were removed. The cells are repeatedly washed by gentle mixing with PBS, and centrifugation until the upper phase is clear. In the last wash, 40 ml of 1×PBS with 0.05% BSA was added to half of the red blood cells while 40 ml of 1×PBS without BSA was added to the other half. The upper phase of the last wash was removed to leave a total volume of about 10 ml. The concentration of the red blood cells was measured by using the spectrophometer at 600 nm. […]
The compound NOVO3 is two-fold serially diluted (similar to that described above for mammalian NIH3T3 cytotoxicity assay) as 100× concentration in DMSO, ranging from 12.5 μg/ml to 3200 μg/ml. […] After thorough mixing, the absorbance at 450 nm was read using a Spectramax Plus Spectrophotometer, with wells A12, and B12 reserved […], using wells with only 1×PBS as blanks.
The absorbance at 450 nm measured the amount of hemoglobin released by the lysis of red blood cells (FIG. 4). […]

MRSA NRS108 [1] = assay: Growth inhibition on solid agar (5 μl spot on bacterial lawn); type: cell-based, Staphylococcus aureus; details: minimal concentration giving observable zone of no growth, MHB agar
MRSA NRS1 = assay: as above; type: cell-based, Staphylococcus aureus; details: minimal concentration giving observable zone of no growth, MHB agar
[2] = system: E. faecalis ATCC 51299 (VRE); assay: as above; type: cell-based; details: minimal concentration giving observable zone of no growth, MHB agar
[3] = system: NIH3T3 mouse embryonic fibroblasts; assay: Mammalian cytotoxicity assay (CellTiter 96 AQueous One Solution); type: cell-based; details: NIH3T3 cells, 24 hr exposure; concentration with 50% of control signal
Method: Mammalian cytotoxicity assays were performed using NIH3T3 mouse embryonic fibroblasts (ATCC CRL-1658), and cytotoxicity was measured using the CellTiter 96® AQueous One Solution Cell Proliferation Assay (Promega, Madison, Wis., Cat: G3582), according to the manufacturer's recommendations.
A control of DMSO was also included (wells in column A01, and A12).
An exponentially growing population of NIH/3T3 mouse embryonic fibroblast cells was trypsinized into single cell suspension and seeded at 3000 cells per 100 μl in all wells, except column 11 and 12 of a sterile 96-well flat bottom plate. […]
The plate was visually inspected under a dissecting microscope, and the absorbance at 490 nm was read using a Spectramax Plus Spectrophotometer, with wells A12, and B12 reserved as blanks (FIG. 3). The signal of compound alone (well All) was verified not to contribute to the absorbance at this wavelength. Next, 20 μl of the CellTiter 96® AQueous One Solution Cell Proliferation Assay (Promega, Madison, Wis., Cat: G3582) was added to each well, and the plate was read after 3 hr of incubation. […]

MRSA NRS108 [4] = assay: Minimal Inhibitory Concentration in broth; details: Staphylococcus aureus
[5] = system: E. faecalis ATCC 51575 (VRE); assay: Growth inhibition on solid agar (5 μl spot on bacterial lawn); type: cell-based; details: minimal concentration giving observable zone of no growth, MHB agar
B. subtilis 1A1 [6] = assay: as above; type: cell-based; details: minimal concentration giving observable zone of no growth, MHB agar
B. subtilis 1A1 [7] = assay: Minimal Inhibitory Concentration in broth; details: Bacillus subtilis, 1A1, B. subtilis 1A1
C. difficile 2001 = assay: Minimal Inhibitory Concentration in broth; type: cell-based; details: Clostridioides difficile, 2001, C. difficile 2001
E. faecalis BM4147 (VRE) = assay: Growth inhibition on solid agar (5 μl spot on bacterial lawn); type: cell-based; details: minimal concentration giving observable zone of no growth, MHB agar

CC1/C=C/C=C\C=C\CC(C)C(OC2OC(C)C(O)C(N)C2O)C\C=C/C=C/C=C\C(=O)NC1 (stereo not shown) [NOVO3]
Growth Inhibition with 5 μl of NOVO3 (B. anthracis Sterne): 1.25 µg/mL
MIC (MSSA 33591; MHB): 8 µg/mL (≈ 16.9 µM)
MIC (MSSA 33591; MHB + 0.05% BSA): 0.25 µg/mL
MIC (C. difficile 196): 8 µg/mL
MIC (MSSA 29213; MHB): 8 µg/mL (≈ 16.9 µM)
MIC (MSSA 29213; MHB + 0.05% BSA): 0.25 µg/mL
hemolysis (human red blood cells): no significant hemolysis
Growth Inhibition with 5 μl of NOVO3 (MRSA NRS108 [1]): 1.25 µg/mL
Growth Inhibition with 5 μl of NOVO3 (MRSA NRS1): 1.25 µg/mL
Growth Inhibition with 5 μl of NOVO3 [2]: 1.25 µg/mL
LD50 [3]: > 32 µg/mL
MIC (MRSA NRS108 [4]; MRSA NRS108, MHB (Table 3)): 8 µg/mL (≈ 16.9 µM)
MIC (MRSA NRS108 [4]; MRSA NRS108, MHB (Table 4B, serum study)): 4 to 8 µg/mL (≈ 8.46 to 16.9 µM)
MIC (MRSA NRS108 [4]; MRSA NRS108, MHB + 0.05% BSA): 0.25 to 0.5 µg/mL
MIC (MRSA NRS108 [4]; MRSA NRS108, MHB + 10% Calf Bovine Serum): 0.25 to 0.5 µg/mL
MIC (MRSA NRS108 [4]; MRSA NRS108, MHB + 40% Calf Bovine Serum): 0.25 µg/mL
MIC (MRSA NRS108 [4]; MRSA|NRS108, MRSA NRS108, GM (Dulbecco's Modified Eagle's medium with 10% bovine calf serum)): 0.25 µg/mL (≈ 0.529 µM)
Growth Inhibition with 5 μl of NOVO3 [5]: 5 µg/mL
Growth Inhibition with 5 μl of NOVO3 (B. subtilis 1A1 [6]): 0.125 µg/mL
MIC (B. subtilis 1A1 [7]; MHB (Table 3)): 3 ± 1.3 µg/mL (≈ 6.35 µM)
MIC (B. subtilis 1A1 [7]; MHB (Table 4, serum study)): 3 ± 1.3 µg/mL (≈ 6.35 µM)
MIC (B. subtilis 1A1 [7]; MHB + 0.02% Tween 80): 0.25 µg/mL
MIC (B. subtilis 1A1 [7]; MHB + 0.05% BSA): 0.166 ± 0.08 µg/mL
MIC (B. subtilis 1A1 [7]; MHB + 10% Calf Bovine Serum): 0.144 µg/mL
MIC (B. subtilis 1A1 [7]; MHB + 10% human serum): 0.125 µg/mL
MIC (B. subtilis 1A1 [7]; MHB + 10% mouse serum): 0.125 µg/mL
MIC (B. subtilis 1A1 [7]; MHB + 40% Calf Bovine Serum): 0.125 µg/mL
MIC (C. difficile 2001; MHB): 32 µg/mL (≈ 67.7 µM)
MIC (C. difficile 2001; MHB + 0.05% BSA): 8 µg/mL
Growth Inhibition with 5 μl of NOVO3 (E. faecalis BM4147 (VRE)): 1.25 µg/mL

Triton X100 [reference compound]
absorbance at 450 nm (hemoglobin released) (human red blood cells): 0.41
